Experimental data as given in patent US20100022483A1, “Substituted Tetracycline Compounds” (Paratek Pharmaceuticals, Inc., priority 2008, published 2010).
Converted amounts (≈) assume the structure as drawn. Like-named read-outs stand apart in the source and are kept apart here.

Legend:
gram positive bacteria = assay: In vitro anti-bacterial activity assay (broth dilution MIC), gram positive bacteria; format: cell-based, S. aureus; details: 18 h
Procedure, shortened: (§1)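 Broth dilution MIC following CLSI M7-A2: compounds serially diluted, log-phase test strains added to final ~5×10^5 CFU/ml, incubated ~18 hours at 35° C in ambient air. Plates read on microplate reader or visually; MIC is lowest concentration inhibiting growth.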

in vitro = format: cell-based; details: Chinese hamster, Cytotox. CHO-K1
3T3 fibroblast cells = assay: In vitro phototoxicity assay (neutral red; UV light-treated vs dark control plates); format: cell-based; details: for Photo Toxicity UV Tox50: UV light 50 minutes; for Photo Toxicity Dark Tox50: dark control plate
Procedure, shortened: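 Neutral red viability readout (A535 after EtOH/acetic acid extraction) compares paired plates: one exposed 50 min to UV at 1.6–1.8 mW/cm^2, one held in darkness, both dosed with compound in HBSS and recovered overnight. 3T3 fibroblast cells used; phototoxicity taken as the difference.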

[1] = Mammalian cytotoxicity assay (resazurin), COS-1 cells; format: cell-based; details: African green monkey, read-out: Cytotox. COS-1
Procedure, shortened: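 Cells seeded overnight at 37° C., 5% CO2, then exposed to serial compound dilutions for 24 hours. Medium replaced with resazurin (0.042 mg/ml in PBS with Ca and Mg) for 2 hours plus 30 minutes dark at room temperature; fluorescence read at ex 535/em 590 nm, IC50 taken as 50% growth inhibition.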

gram negative bacteria = assay: In vitro anti-bacterial activity assay (broth dilution MIC), gram negative bacteria; format: cell-based, E. coli
Procedure, shortened: as §1

[2] = Staphylococcus aureus, S. aureus MRSA5, read-out: Median MIC's G+ S. aureus MRSA5
[3] = Staphylococcus aureus, S. aureus RN450, read-out: Median MIC's G+ S. aureus RN450
[4] = Streptococcus pneumoniae, S. pneumoniae 157E-Strep, read-out: Median MIC's G+ S. pneumoniae 157E-Strep
[5] = Escherichia coli, 18 h, E. coli D1 209, read-out: Median MIC's G− E. coli D1 209
[6] = Escherichia coli, 18 h, E. coli MG 1655, read-out: Median MIC's G− E. coli MG 1655
[7] = Escherichia coli, ATCC25922, 18 h, E. coli ATCC 25922, read-out: Median MIC's G− E. coli ATCC 25922
[8] = Pseudomonas aeruginosa, 18 h, P. aeruginosa K201 PAO6609, read-out: Median MIC's G− P. aeruginosa K201 PAO6609

Structure (SMILES)	MIC (gram positive bacteria; [2])	MIC (gram positive bacteria; [3])	MIC (gram positive bacteria; [4])	IC50 at 24 h (in vitro)	Photo Toxicity UV Tox50 (3T3 fibroblast cells)	Photo Toxicity Dark Tox50 (3T3 fibroblast cells)	IC50 at 24 h [1]	MIC (gram negative bacteria; [5])	MIC (gram negative bacteria; [6])	MIC (gram negative bacteria; [7])	MIC (gram negative bacteria; [8])	MIC (gram positive bacteria; Staphylococcus aureus, read-out: Median MIC's G+ S. aureus MRSA5)	MIC (gram positive bacteria; Staphylococcus aureus, read-out: Median MIC's G+ S. aureus RN450)	MIC (gram positive bacteria; Streptococcus pneumoniae, read-out: Median MIC's G+ S. pneumoniae 157E-Strep)
CN1CCN(C(=O)c2cccc(-c3ccc(O)c4c3C[C@H]3C[C@H]5[C@@H](N(C)C)C(O)=C(C(N)=O)C(=O)[C@@]5(O)C(O)=C3C4=O)c2)CC1 [D]	64 µg/mL (≈ 104 µM)	32 µg/mL (≈ 51.9 µM)	4 µg/mL (≈ 6.49 µM)	> 131 µM	>130.51 µM	>130.51 µM	> 131 µM	64 µg/mL (≈ 104 µM)	64 µg/mL (≈ 104 µM)	64 µg/mL (≈ 104 µM)	64 µg/mL (≈ 104 µM)	–	–	–
CN(C)[C@@H]1C(O)=C(C(N)=O)C(=O)[C@@]2(O)C(O)=C3C(=O)c4c(O)ccc(-c5cccc(C(N)=O)c5)c4C[C@H]3C[C@@H]12 [AE]	4 µg/mL (≈ 7.5 µM)	0.06 µg/mL (≈ 0.112 µM)	0.06 µg/mL (≈ 0.112 µM)	> 15.7 µM	>156.64 µM	>156.64 µM	> 15.7 µM	64 µg/mL (≈ 120 µM)	4 µg/mL (≈ 7.5 µM)	4 µg/mL (≈ 7.5 µM)	64 µg/mL (≈ 120 µM)	–	–	–
CN1CCN(Cc2cccc(-c3ccc(O)c4c3C[C@H]3C[C@H]5[C@H](N(C)C)C(O)=C(C(N)=O)C(=O)[C@@]5(O)C(O)=C3C4=O)c2)CC1 [DK]	4 µg/mL (≈ 6.64 µM)	0.0625 µg/mL (≈ 0.104 µM)	0.06 µg/mL (≈ 0.0996 µM)	92.3 µM	>200 µM	>200 µM	> 200 µM	2 µg/mL (≈ 3.32 µM)	4 µg/mL (≈ 6.64 µM)	1 µg/mL (≈ 1.66 µM)	64 µg/mL (≈ 106 µM)	–	–	–
CN(C)[C@@H]1C(O)=C(C(N)=O)C(=O)[C@@]2(O)C(O)=C3C(=O)c4c(O)ccc(-c5cccc(/C=C/C#N)c5)c4C[C@H]3C[C@@H]12 [CO]	0.5 µg/mL (≈ 0.923 µM)	0.0625 µg/mL (≈ 0.115 µM)	0.06 µg/mL (≈ 0.111 µM)	9.41 µM	>164.35 µM	>164.35 µM	7.77 µM	64 µg/mL (≈ 118 µM)	64 µg/mL (≈ 118 µM)	64 µg/mL (≈ 118 µM)	64 µg/mL (≈ 118 µM)	–	–	–
CN(C)[C@@H]1C(O)=C(C(N)=O)C(=O)[C@@]2(O)C(O)=C3C(=O)c4c(O)ccc(-c5ccc(CNCc6cccnc6)o5)c4C[C@H]3C[C@@H]12 [BI]	8 µg/mL (≈ 13.3 µM)	0.06 µg/mL (≈ 0.0999 µM)	0.06 µg/mL (≈ 0.0999 µM)	> 26 µM	>126.75 µM	>126.75 µM	> 39.3 µM	2 µg/mL (≈ 3.33 µM)	4 µg/mL (≈ 6.66 µM)	1 µg/mL (≈ 1.66 µM)	64 µg/mL (≈ 107 µM)	–	–	–
CN(C)CCN(C)Cc1cccc(-c2ccc(O)c3c2C[C@H]2C[C@H]4[C@H](N(C)C)C(O)=C(C(N)=O)C(=O)[C@@]4(O)C(O)=C2C3=O)c1 [CT]	4 µg/mL (≈ 6.61 µM)	0.0625 µg/mL (≈ 0.103 µM)	0.06 µg/mL (≈ 0.0992 µM)	> 126 µM	>126.03 µM	>126.03 µM	> 126 µM	4 µg/mL (≈ 6.61 µM)	2 µg/mL (≈ 3.31 µM)	2 µg/mL (≈ 3.31 µM)	64 µg/mL (≈ 106 µM)	–	–	–
CC(C)N(CCNC(=O)c1cccc(-c2ccc(O)c3c2C[C@H]2C[C@H]4[C@H](N(C)C)C(O)=C(C(N)=O)C(=O)[C@@]4(O)C(O)=C2C3=O)c1)C(C)C [T]	4 µg/mL (≈ 6.05 µM)	0.13 µg/mL (≈ 0.197 µM)	0.06 µg/mL (≈ 0.0908 µM)	36.2 µM	>133.57 µM	>133.57 µM	> 41.4 µM	8 µg/mL (≈ 12.1 µM)	16 µg/mL (≈ 24.2 µM)	4 µg/mL (≈ 6.05 µM)	64 µg/mL (≈ 96.9 µM)	–	–	–
CCCCNC(=O)c1cccc(-c2ccc(O)c3c2C[C@H]2C[C@H]4[C@H](N(C)C)C(O)=C(C(N)=O)C(=O)[C@@]4(O)C(O)=C2C3=O)c1 [F]	–	–	–	> 15.2 µM	>151.73 µM	>151.73 µM	15.2 µM	64 µg/mL (≈ 109 µM)	64 µg/mL (≈ 109 µM)	64 µg/mL (≈ 109 µM)	64 µg/mL (≈ 109 µM)	1 µg/mL (≈ 1.7 µM)	0.06 µg/mL (≈ 0.102 µM)	0.06 µg/mL (≈ 0.102 µM)
CC(=O)Nc1cccc(-c2ccc(O)c3c2C[C@H]2C[C@H]4[C@H](N(C)C)C(O)=C(C(N)=O)C(=O)[C@@]4(O)C(O)=C2C3=O)c1 [AO]	4 µg/mL (≈ 7.31 µM)	0.06 µg/mL (≈ 0.11 µM)	0.06 µg/mL (≈ 0.11 µM)	> 16.3 µM	>162.66 µM	>162.66 µM	> 16.3 µM	64 µg/mL (≈ 117 µM)	32 µg/mL (≈ 58.4 µM)	4 µg/mL (≈ 7.31 µM)	64 µg/mL (≈ 117 µM)	–	–	–
COCCNCc1ccc(-c2ccc(O)c3c2C[C@H]2C[C@H]4[C@H](N(C)C)C(O)=C(C(N)=O)C(=O)[C@@]4(O)C(O)=C2C3=O)cc1 [BG]	1 µg/mL (≈ 1.73 µM)	0.06 µg/mL (≈ 0.104 µM)	0.06 µg/mL (≈ 0.104 µM)	45.3 to 125 µM	>146.03 µM	>146.03 µM	> 95.6 µM	0.5 µg/mL (≈ 0.866 µM)	0.5 µg/mL (≈ 0.866 µM)	0.25 µg/mL (≈ 0.433 µM)	64 µg/mL (≈ 111 µM)	–	–	–
COC(C)CNCC(=O)c1ccc(O)c2c1C[C@H]1C[C@H]3[C@H](N(C)C)C(O)=C(C(N)=O)C(=O)[C@@]3(O)C(O)=C1C2=O (some centres unmarked) [CA]	32 µg/mL (≈ 58.9 µM)	4 µg/mL (≈ 7.36 µM)	2 µg/mL (≈ 3.68 µM)	> 146 µM	>145.98 µM	>145.98 µM	> 146 µM	64 µg/mL (≈ 118 µM)	32 µg/mL (≈ 58.9 µM)	32 µg/mL (≈ 58.9 µM)	64 µg/mL (≈ 118 µM)	–	–	–
CN(C)[C@@H]1C(O)=C(C(N)=O)C(=O)[C@@]2(O)C(O)=C3C(=O)c4c(O)ccc(-c5coc(CN6CCCCC6)c5)c4C[C@H]3C[C@@H]12 [BF]	1 µg/mL (≈ 1.73 µM)	0.06 µg/mL (≈ 0.104 µM)	0.06 µg/mL (≈ 0.104 µM)	> 42.9 µM	>138.34 µM	>138.34 µM	> 42.9 µM	0.5 µg/mL (≈ 0.866 µM)	1 µg/mL (≈ 1.73 µM)	0.25 µg/mL (≈ 0.433 µM)	64 µg/mL (≈ 111 µM)	–	–	–
CCN(CC)CCNC(=O)c1cccc(-c2ccc(O)c3c2C[C@H]2C[C@H]4[C@@H](N(C)C)C(O)=C(C(N)=O)C(=O)[C@@]4(O)C(O)=C2C3=O)c1 [O]	64 µg/mL (≈ 101 µM)	4 µg/mL (≈ 6.32 µM)	4 µg/mL (≈ 6.32 µM)	> 135 µM	>134.63 µM	>134.63 µM	> 135 µM	64 µg/mL (≈ 101 µM)	64 µg/mL (≈ 101 µM)	64 µg/mL (≈ 101 µM)	64 µg/mL (≈ 101 µM)	–	–	–
